Among the data in ChEMBL document CHEMBL1201862, “PubChem BioAssay data set” (2004) are IC50 values, retold here.

Active and inactive are the calls of the source. Cut-off read from the data, not from the text of the source: actives have a measured IC50 and inactives only a lower limit.

By IC50 is commonly meant the concentration at which inhibition is half-maximal.

Sequence of Envelope glycoprotein gp160 (Q6QLK5 whole entry, the tested form may be a part): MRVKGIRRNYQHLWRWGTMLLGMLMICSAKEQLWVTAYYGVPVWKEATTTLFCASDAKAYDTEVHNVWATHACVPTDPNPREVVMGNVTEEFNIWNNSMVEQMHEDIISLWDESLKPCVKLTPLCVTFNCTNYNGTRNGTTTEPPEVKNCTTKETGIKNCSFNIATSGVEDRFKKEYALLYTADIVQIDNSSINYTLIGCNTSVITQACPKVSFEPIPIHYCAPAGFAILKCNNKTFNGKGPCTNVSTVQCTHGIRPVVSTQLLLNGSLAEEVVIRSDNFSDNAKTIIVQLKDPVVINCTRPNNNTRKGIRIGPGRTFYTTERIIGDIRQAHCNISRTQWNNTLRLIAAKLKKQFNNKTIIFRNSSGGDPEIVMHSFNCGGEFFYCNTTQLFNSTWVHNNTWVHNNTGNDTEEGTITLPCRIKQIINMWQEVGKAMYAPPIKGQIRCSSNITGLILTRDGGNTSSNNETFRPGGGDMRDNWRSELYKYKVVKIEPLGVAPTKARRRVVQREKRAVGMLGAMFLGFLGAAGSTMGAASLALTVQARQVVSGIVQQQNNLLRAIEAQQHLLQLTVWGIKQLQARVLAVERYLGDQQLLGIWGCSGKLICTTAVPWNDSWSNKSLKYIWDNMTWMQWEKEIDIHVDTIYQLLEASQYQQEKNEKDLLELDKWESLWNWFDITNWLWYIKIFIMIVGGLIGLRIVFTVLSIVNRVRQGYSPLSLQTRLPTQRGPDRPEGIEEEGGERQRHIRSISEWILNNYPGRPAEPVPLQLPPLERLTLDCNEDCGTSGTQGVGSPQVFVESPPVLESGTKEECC

This assay has as its target Envelope glycoprotein gp160 (Human immunodeficiency virus 1, UniProt Q6QLK5). Kind of assay: cell-free HIV fusion peptide-binding blockers – biochemical, uHTS, fluorescence dequenching, […] (AID 1986).
Consider `CC(C)(C)OC(=O)N1CCC(c2cc(O)n3ncc(C(=O)Nc4ccc(F)c(Cl)c4)c3n2)CC1`, for which the IC50 was 82.2 µM (active). In the case of `O=C1N/C(=N\c2ccccc2Cl)S/C1=C\c1cccc([N+](=O)[O-])c1O`, the half-maximal inhibitory concentration (IC50) was 22.1 µM (active).

Consider `Nc1c(S(=O)(=O)O)cc(NC(=O)c2ccccc2)c2c1C(=O)c1ccccc1C2=O`, for which the half-inhibitory concentration (IC50) is 12.1 µM (active). Consider `Cc1ccc(-c2nn(-c3ccccc3)cc2/C=C2\SC(=S)N(CC(=O)O)C2=O)cc1`, for which the IC50 was 12.3 µM (active). The value for `CCOc1cc(Br)cc(C(c2c(C(=O)O)[nH]c3ccccc23)c2c(C(=O)O)[nH]c3ccccc23)c1O` was 5.92 µM (active).
